# Experimental data from publication PMC4526387 (Clinical cancer research : an official journal of the …, 2015).
# Read-outs that look alike come from different tables or passages of the source.
# Tests used:
# advanced solid tumors = conditions: 21 patients, cited from earlier work
# [1] = system: metastatic renal cell carcinoma (mRCC); type: in vivo, human; conditions: rise in MMP-9 and SCF and fall in SHBG and SAP
# [2] = system: metastatic renal cell carcinoma (mRCC); conditions: subset with one prior VEGF-TKI; ref AXIS trial; cited from earlier work
# [3] = Randomized phase II: adverse events; type: in vivo, human
# [4] = system: metastatic renal cell carcinoma (mRCC); test: Randomized phase II: 6MPFS, PFS, response; type: in vivo, human
# [5] = cited from earlier work
# [6] = system: metastatic renal cell carcinoma (mRCC); conditions: subset with one prior VEGF-TKI; ref RECORD-1 trial; cited from earlier work
# [7] = Phase I PK of everolimus in whole blood; type: in vivo, human; conditions: 6-hour collection interval, everolimus 10 mg daily
compound,measurement,setting,value
COc1cc(C(=O)c2c(C)oc3c(OP(=O)([O-])[O-])c(OC)ccc23)cc(OC)c1OC.[Na+].[Na+] [BNC105P],objective responses,advanced solid tumors,no objective responses
same,patients with stable disease (SD) as best response,advanced solid tumors,4 patients
same,intravenous dose identified for further studies,advanced solid tumors; days 1 and 8 of a 21-day cycle,16 mg/m^2
same,"patients progression free at 6 months, selected population",[1],60%
CNC(=O)c1ccccc1Sc1ccc2c(/C=C/c3ccccn3)n[nH]c2c1 [axitinib],median PFS,[2],4.8 months
CO[C@H]1C[C@@H]2CC[C@@H](C)[C@@](O)(O2)C(=O)C(=O)N2CCCC[C@H]2C(=O)O[C@H]([C@H](C)C[C@@H]2CC[C@@H](OCCO)[C@H](OC)C2)CC(=O)[C@H](C)/C=C(\C)[C@@H](O)[C@@H](OC)C(=O)[C@H](C)C[C@H](C)/C=C/C=C/C=C/1C [everolimus],Abdominal pain %,[3]; % of arm,10.4%
same,Acneiform rash %,[3]; % of arm,10.4%
same,Anorexia %,[3]; % of arm,23.9%
same,Back pain %,[3]; % of arm,26.9%
same,Constipation %,[3]; % of arm,22.4%
same,Cough %,[3]; % of arm,20.9%
same,Diarrhea %,[3]; % of arm,23.9%
same,Dyspnea %,[3]; % of arm,31.3%
same,Epistaxis/Respiratory tract hemorrhage %,[3]; % of arm,11.9%
same,Extremity pain %,[3]; % of arm,13.4%
same,Fatigue %,[3]; % of arm,44.8%
same,Fever %,[3]; % of arm,17.9%
same,Headache %,[3]; % of arm,16.4%
same,Insomnia %,[3]; % of arm,16.4%
same,Lower extremity %,[3]; % of arm,19.4%
same,Nausea %,[3]; % of arm,23.9%
same,Nausea/Vomiting %,[3]; % of arm,16.4%
same,Proteinuria %,[3]; % of arm,14.9%
same,Pruritus %,[3]; % of arm,7.5%
same,Rash %,[3]; % of arm,22.4%
same,Skin changes %,[3]; % of arm,20.9%
same,Stomatitis %,[3]; % of arm,28.4%
same,Taste alteration %,[3]; % of arm,14.9%
same,Elevated ALT %,"[3]; laboratory, % of arm",10.4%
same,Elevated AST %,"[3]; laboratory, % of arm",11.9%
same,Elevated alkaline phosphatise %,"[3]; laboratory, % of arm",14.9%
same,Elevated creatinine %,"[3]; laboratory, % of arm",11.9%
same,Hypercholesterolemia %,"[3]; laboratory, % of arm",28.4%
same,Hyperglycemia %,"[3]; laboratory, % of arm",25.4%
same,Hypertriglyceridemia %,"[3]; laboratory, % of arm",31.3%
same,Hyponatremia %,"[3]; laboratory, % of arm",11.9%
same,Low hemoglobin %,"[3]; laboratory, % of arm",37.3%
same,Thrombocytopenia %,"[3]; laboratory, % of arm",14.9%
same,Elevated ALT Grade 1/2,"[3]; laboratory, number of patients",7
same,Elevated ALT Grade 3/4,"[3]; laboratory, number of patients",0
same,Elevated ALT Grade 5,"[3]; laboratory, number of patients",0
same,Elevated ALT Total,"[3]; laboratory, number of patients",7
same,Elevated AST Grade 1/2,"[3]; laboratory, number of patients",8
same,Elevated AST Grade 3/4,"[3]; laboratory, number of patients",0
same,Elevated AST Grade 5,"[3]; laboratory, number of patients",0
same,Elevated AST Total,"[3]; laboratory, number of patients",8
same,Elevated alkaline phosphatise Grade 1/2,"[3]; laboratory, number of patients",9
same,Elevated alkaline phosphatise Grade 3/4,"[3]; laboratory, number of patients",1
same,Elevated alkaline phosphatise Grade 5,"[3]; laboratory, number of patients",0
same,Elevated alkaline phosphatise Total,"[3]; laboratory, number of patients",10
same,Elevated creatinine Grade 1/2,"[3]; laboratory, number of patients",5
same,Elevated creatinine Grade 3/4,"[3]; laboratory, number of patients",3
same,Elevated creatinine Grade 5,"[3]; laboratory, number of patients",0
same,Elevated creatinine Total,"[3]; laboratory, number of patients",8
same,Hypercholesterolemia Grade 1/2,"[3]; laboratory, number of patients",19
same,Hypercholesterolemia Grade 3/4,"[3]; laboratory, number of patients",0
same,Hypercholesterolemia Grade 5,"[3]; laboratory, number of patients",0
same,Hypercholesterolemia Total,"[3]; laboratory, number of patients",19
same,Hyperglycemia Grade 1/2,"[3]; laboratory, number of patients",12
same,Hyperglycemia Grade 3/4,"[3]; laboratory, number of patients",5
same,Hyperglycemia Grade 5,"[3]; laboratory, number of patients",0
same,Hyperglycemia Total,"[3]; laboratory, number of patients",17
same,Hypertriglyceridemia Grade 1/2,"[3]; laboratory, number of patients",17
same,Hypertriglyceridemia Grade 3/4,"[3]; laboratory, number of patients",4
same,Hypertriglyceridemia Grade 5,"[3]; laboratory, number of patients",0
same,Hypertriglyceridemia Total,"[3]; laboratory, number of patients",21
same,Hyponatremia Grade 1/2,"[3]; laboratory, number of patients",5
same,Hyponatremia Grade 3/4,"[3]; laboratory, number of patients",3
same,Hyponatremia Grade 5,"[3]; laboratory, number of patients",0
same,Hyponatremia Total,"[3]; laboratory, number of patients",8
same,Low hemoglobin Grade 1/2,"[3]; laboratory, number of patients",19
same,Low hemoglobin Grade 3/4,"[3]; laboratory, number of patients",6
same,Low hemoglobin Grade 5,"[3]; laboratory, number of patients",0
same,Low hemoglobin Total,"[3]; laboratory, number of patients",25
same,Thrombocytopenia Grade 1/2,"[3]; laboratory, number of patients",8
same,Thrombocytopenia Grade 3/4,"[3]; laboratory, number of patients",2
same,Thrombocytopenia Grade 5,"[3]; laboratory, number of patients",0
same,Thrombocytopenia Total,"[3]; laboratory, number of patients",10
same,Abdominal pain Grade 1/2,[3]; number of patients,5
same,Abdominal pain Grade 3/4,[3]; number of patients,2
same,Abdominal pain Grade 5,[3]; number of patients,0
same,Abdominal pain Total,[3]; number of patients,7
same,Acneiform rash Grade 1/2,[3]; number of patients,7
same,Acneiform rash Grade 3/4,[3]; number of patients,0
same,Acneiform rash Grade 5,[3]; number of patients,0
same,Acneiform rash Total,[3]; number of patients,7
same,Anorexia Grade 1/2,[3]; number of patients,15
same,Anorexia Grade 3/4,[3]; number of patients,1
same,Anorexia Grade 5,[3]; number of patients,0
same,Anorexia Total,[3]; number of patients,16
same,Back pain Grade 1/2,[3]; number of patients,12
same,Back pain Grade 3/4,[3]; number of patients,6
same,Back pain Grade 5,[3]; number of patients,0
same,Back pain Total,[3]; number of patients,18
same,Constipation Grade 1/2,[3]; number of patients,15
same,Constipation Grade 3/4,[3]; number of patients,0
same,Constipation Grade 5,[3]; number of patients,0
same,Constipation Total,[3]; number of patients,15
same,Cough Grade 1/2,[3]; number of patients,13
same,Cough Grade 3/4,[3]; number of patients,1
same,Cough Grade 5,[3]; number of patients,0
same,Cough Total,[3]; number of patients,14
same,Diarrhea Grade 1/2,[3]; number of patients,16
same,Diarrhea Grade 3/4,[3]; number of patients,0
same,Diarrhea Grade 5,[3]; number of patients,0
same,Diarrhea Total,[3]; number of patients,16
same,Dyspnea Grade 1/2,[3]; number of patients,17
same,Dyspnea Grade 3/4,[3]; number of patients,4
same,Dyspnea Grade 5,[3]; number of patients,0
same,Dyspnea Total,[3]; number of patients,21
same,Epistaxis/Respiratory tract hemorrhage Grade 1/2,[3]; number of patients,8
same,Epistaxis/Respiratory tract hemorrhage Grade 3/4,[3]; number of patients,0
same,Epistaxis/Respiratory tract hemorrhage Grade 5,[3]; number of patients,0
same,Epistaxis/Respiratory tract hemorrhage Total,[3]; number of patients,8
same,Extremity pain Grade 1/2,[3]; number of patients,8
same,Extremity pain Grade 3/4,[3]; number of patients,1
same,Extremity pain Grade 5,[3]; number of patients,0
same,Extremity pain Total,[3]; number of patients,9
same,Fatigue Grade 1/2,[3]; number of patients,24
same,Fatigue Grade 3/4,[3]; number of patients,6
same,Fatigue Grade 5,[3]; number of patients,0
same,Fatigue Total,[3]; number of patients,30
same,Fever Grade 1/2,[3]; number of patients,10
same,Fever Grade 3/4,[3]; number of patients,2
same,Fever Grade 5,[3]; number of patients,0
same,Fever Total,[3]; number of patients,12
same,Headache Grade 1/2,[3]; number of patients,10
same,Headache Grade 3/4,[3]; number of patients,1
same,Headache Grade 5,[3]; number of patients,0
same,Headache Total,[3]; number of patients,11
same,Insomnia Grade 1/2,[3]; number of patients,11
same,Insomnia Grade 3/4,[3]; number of patients,0
same,Insomnia Grade 5,[3]; number of patients,0
same,Insomnia Total,[3]; number of patients,11
same,Lower extremity Grade 1/2,[3]; number of patients,13
same,Lower extremity Grade 3/4,[3]; number of patients,0
same,Lower extremity Grade 5,[3]; number of patients,0
same,Lower extremity Total,[3]; number of patients,13
same,Nausea Grade 1/2,[3]; number of patients,14
same,Nausea Grade 3/4,[3]; number of patients,2
same,Nausea Grade 5,[3]; number of patients,0
same,Nausea Total,[3]; number of patients,16
same,Nausea/Vomiting Grade 1/2,[3]; number of patients,9
same,Nausea/Vomiting Grade 3/4,[3]; number of patients,2
same,Nausea/Vomiting Grade 5,[3]; number of patients,0
same,Nausea/Vomiting Total,[3]; number of patients,11
same,Proteinuria Grade 1/2,[3]; number of patients,10
same,Proteinuria Grade 3/4,[3]; number of patients,0
same,Proteinuria Grade 5,[3]; number of patients,0
same,Proteinuria Total,[3]; number of patients,10
same,Pruritus Grade 1/2,[3]; number of patients,4
same,Pruritus Grade 3/4,[3]; number of patients,1
same,Pruritus Grade 5,[3]; number of patients,0
same,Pruritus Total,[3]; number of patients,5
same,Rash Grade 1/2,[3]; number of patients,15
same,Rash Grade 3/4,[3]; number of patients,0
same,Rash Grade 5,[3]; number of patients,0
same,Rash Total,[3]; number of patients,15
same,Skin changes Grade 1/2,[3]; number of patients,11
same,Skin changes Grade 3/4,[3]; number of patients,3
same,Skin changes Grade 5,[3]; number of patients,0
same,Skin changes Total,[3]; number of patients,14
same,Stomatitis Grade 1/2,[3]; number of patients,13
same,Stomatitis Grade 3/4,[3]; number of patients,6
same,Stomatitis Grade 5,[3]; number of patients,0
same,Stomatitis Total,[3]; number of patients,19
same,Taste alteration Grade 1/2,[3]; number of patients,10
same,Taste alteration Grade 3/4,[3]; number of patients,0
same,Taste alteration Grade 5,[3]; number of patients,0
same,Taste alteration Total,[3]; number of patients,10
same,6-month progression-free survival (6MPFS),[4]; phase II,30.30%
same,partial responses (number),[4]; phase II,2
same,median PFS amongst patients with liver metastasis,[4]; phase II exploratory analysis,2.8 months
same,half-life,[5],26 to 38 h
same,mean trough concentration at steady state,[5]; patients who received 10 mg everolimus daily,13.2 ng/mL
same,median PFS,[6],5.4 months
same,overall mean concentration,[7],17.8 ng/mL
